One compound from patent US20230201285A1, “GRANULAR C[…] WATER DISPERSIBLE CANNABINOIDS AND METHODS OF MAKING THE SAME” (priority 2021, published 2023) can be followed below.

This data set can be described thus: Emulsion formation of CBD powder in water with emulsifier or co-solvent. The conditions noted are these: 200 mg CBD powder, 40 mL water, shaken five minutes. It counts as physicochemical. As for the experimental part: A study was conducted with several different emulsifiers or co-solvents added to water and CBD powder.
In a first experiment, five 50 mL centrifuge tubes were each filled with 40 mL of water and 200 mg of CBD powder. Then, increasing amounts of PEG-400 (65 mg, 130 mg, 195 mg, 260 mg, and 650 mg) were added respectively to each centrifuge tube, which were then placed on a tabletop shaker and mechanically shaken on high for five minutes. […] No emulsion, however, was immediately formed after mixing.
In a second experiment, four 50 mL centrifuge tubes were each filled with 40 mL of water and 200 mg of CBD powder. Then, increasing amounts of TWEEN 80 (160 mg, 320 mg, 800 mg, and 1600 mg) were added respectively to each centrifuge tube, which were then placed on a tabletop shaker and mechanically shaken on high for five minutes. […] Further, CBD powder was still floating around in each tube.
In a third experiment, four 50 mL centrifuge tubes were each filled with 40 mL of water and 200 mg of CBD powder. Then, increasing amounts of sodium dodecyl sulfate (SDS) (10 mg, 25 mg, 50 mg, and 100 mg) were added respectively to each centrifuge tube, which were then placed on a tabletop shaker and mechanically shaken on high for five minutes. […] Further, CBD residue was observed on the bottom of each tube.
Finally, in a fourth experiment, four 50 mL centrifuge tubes were each filled with 40 mL of water and 200 mg of CBD powder. Then, increasing amounts of glycerol monostearate (GMS) (10 mg, 25 mg, 50 mg, and 100 mg) were added respectively to each centrifuge tube, which were then placed on a tabletop shaker and mechanically shaken on high for five minutes. […] Further, CBD residue was observed on the bottom and sides of each tube.

As for `C=C(C)[C@@H]1CCC(C)=C[C@H]1c1c(O)cc(CCCCC)cc1O` [CBD powder, cannabidiol], the emulsion formation entry is “no emulsion was formed in any tube” (GMS 10-100 mg), “No emulsion” (PEG-400 65-650 mg), “no emulsion was formed in any tube” (SDS 10-100 mg) and “no emulsion was formed in any tube” (TWEEN 80 160-1600 mg).
